Results as given in patent publication US10828288B2, “Hydrazone derivatives for the treatment of cancer” (RUTGERS, THE STATE UNIVERSITY OF NEW JERSEY, priority 2015, dated 2020).

Experiments:
[1] = test system: H1299 (p53-null); test: Cell growth inhibition assay, H1299; format: cell-based, human; settings: three day assay, H1299, FIG. 1
[2] = test system: H460 (p53-WT); test: Cell growth inhibition assay, H460; format: cell-based, human; settings: three day assay, H460, FIG. 1
[3] = test system: HEK293 (non-cancer, p53-WT) cells; test: Intracellular [Zn2+]free imaging with FluoZin-3-AM, HEK293; format: cell-based; settings: for increase of intracellular [Zn2+]free (FZ3-AM fluorescence): HEK293, complete media, confocal microscopy
Protocol: To minimize the potential for Zn^2+ contamination and contributions from poorly defined elements in complete media (e.g. FBS), cells were treated and imaged in Ca^2+ and Mg^2+-free Earle's Balanced Salt Solution supplemented with 10 mM HEPES pH 7.4 (EBSS/H (−)Ca/Mg). Excess ZnCl2 with the Zn^2+ ionophore pyrithione (PYR) was used as a positive control. Excess membrane-permeable Zn^2+ chelator N,N,N′,N′-tetrakis(2-pyridylmethyl)ethane-1,2-diamine (TPEN) was used as a negative control.
To normalize for differential dye loading, cells were then sequentially treated with excess PYR/ZnCl2, imaged, treated with TPEN, and imaged again. PYR/ZnCl2 and TPEN served to saturate and apoize the intracellular FZ3, respectively.
(§1) [formula] where Ji is the initial flux, ΔF/Δt is the slope of the fit line, Fmax is RZ-3 fluorescence in the presence of saturating Zn^2+ and 1% TritonX-100, Fmin is RZ-3 fluorescence in the presence of excess EDTA and 1% TritonX-100, [RZ3] is the concentration of encapsulated RZ-3, and SA/Vol is the surface area to volume ratio calculated assuming hollow spheres of the mean diameter determined by DLS. Intracellular [Zn^2+]free Imaging TOV112D or HEK293 cells (40,000 cells/well) were plated on either 8-well BD Falcon chambered culture slides (Corning Life Sciences) or 8-chambered #1.5 Nunc Lab-Tek II chambered coverglasses (Thermo Scientific) treated with poly-L-lysine. After 48 h, cells were washed 2×5 m in serum-free media and incubated with 1 μM FZ3-AM for 40 m at 37° C. Cells were then washed 2×5 m in either EBSS/H (−)Ca/Mg or phenol-red free DMEM+10% FBS containing the indicated treatments for 20 m before imaging. For nuclear colocalization, 1 μg/mL Hoechst 33342 was also included. Cells were imaged using a Zeiss LSM510 META NLO confocal microscope equipped with 37° C. environmental control chamber. FZ3 and Hoechst 33342 were excited at 488 nm (argon laser) and 790 nm (Chameleon Ti:sapphire laser), respectively. To determine the kinetics of fluorescence change, each background-subtracted image in the time-lapse series was integrated in ImageJ and normalized to the integrated fluorescence of the first frame after treatment. For quantification of intracellular [Zn^2+]free, each cell was analyzed in the treated, 50 μM PYR/ZnCl2 (1:1), and 100 μM TPEN images by taking the mean fluorescence of an ROI inside the cell subtracted by an ROI immediately outside the cell measured in ImageJ. The [Zn^2+]free for each cell was then calculated by Eqn 2:
[formula] […] To minimize the effects of outliers the lowest and highest 5% of cells in each series were rejected, and the remaining values averaged to give the value from that experiment. The number of cells analyzed in each trial ranged from 54-163. For nuclear colocalization, treated, PYR/ZnCl2, and TPEN treated images costained with Hoechst 33342 were aligned and each pixel subjected to Eqn. 2 in MATLAB (MathWorks).

[4] = Liposome import assay (RZ-3 fluorescence); format: physicochemical; settings: for shuttling of Zn2+ into liposomes: external [Zn2+]free 10 μM; for change of RZ-3 fluorescence with reversed [Zn2+]free gradient: large excess of EDTA outside the liposomes, ZMC1 added subsequently
Protocol: DOPC-liposomes were prepared by film rehydration and extrusion followed by gel filtration and diluted to an OD600=0.06 in buffer. The size distribution of the liposomes was determined by dynamic light scattering (DLS) using a Malvern Zetasizer Nano ZS. Fluorescence measurements were taken on a Horiba Fluoromax-4 spectrofluorimeter in a 5×5 mm quartz cuvette with λex/λcm=550/572 nm for RZ-3 and 490/515 nm for calcein. Initial Zn^2+ import/export was quantified by fitting the first 10-30 s of data after each treatment to a line and converted to units of flux using the following Eqn 1:
as §1, with “2: […]” for “2:”

Compound	cell growth inhibition of p53 null cell line [1]	cell growth inhibition of p53 wildtype cell line [2]	increase of intracellular [Zn2+]free (FZ3-AM fluorescence) [3]	ability to cross liposomal (or cellular) membranes [4]	shuttling of Zn2+ into liposomes [4]	change of RZ-3 fluorescence with reversed [Zn2+]free gradient [4]	also measured
C/C(=N\Nc1nc2ccccc2o1)c1ccccn1 [Example 2, (E)-2-(2-(1-(pyridin-2-yl)ethylidene)hydrazinyl)benzo[d]oxazole]	undisturbed	undisturbed					
O=C(O)CN(CC(=O)O)CC(=O)O [NTA]			did not	cannot cross	did not		
C/C(=N\Nc1nc2ccccc2s1)c1ccccn1 [Example 1, (E)-2-(2-(1-(pyridin-2-yl)ethylidene)hydrazinyl)benzo[d]thiazole]	undisturbed	undisturbed					
C/C(=N\NC(=S)N1CCC1)c1ccccn1 [ZMC1]			increased	crossed the liposomal membranes		time dependent decrease	steady-state intracellular [Zn2+]free ([3]; HEK293, 1 μM ZMC1 and 0.5 μM ZnCl2 in EBSS/H (−)Ca/Mg): 18.1 ± 4.7 nM; increase of intracellular [Zn2+]free, compound alone ([3]; HEK293, EBSS/H (−)Ca/Mg, ZMC1 alone without ZnCl2): neither cell type showed an increase; increase of intracellular [Zn2+]free, with ZnCl2 ([3]; HEK293, EBSS/H (−)Ca/Mg, ZMC1 and ZnCl2, two ZnCl2 concentrations): time dependent increase
C/C(=N\NC(=O)N1CCC1)c1ccccn1 [Example A6]			did not		shuttled Zn^2+ into the liposomes		
O=C(O)CN(CCN(CC(=O)O)CC(=O)O)CC(=O)O [EDTA]				impermeable		did not cause a significant decrease	
